Assays:
Assay in all cases: relative viability (nuclei count vs DMSO), 5 days (fraction); higher = more cells survive
[1] = compound: CN(C)C(=N)NC(=N)N [Metformin] + CCNC(=O)c1noc(-c2cc(C(C)C)c(O)cc2O)c1-c1ccc(CN2CCOCC2)cc1 [Luminespib] (partner 0.01 µM)
Method in brief: (§1)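 Five library-drug doses in √10 steps were combined with a fixed anchor-drug dose, or a single drug was given alone, by pin tool to lung cancer cell lines in 1536-well plates the day after seeding. Nuclei were stained and counted after 5 days. Relative viability is the nuclei count in treated wells over that in vehicle wells, taken as the median of duplicate plates.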

[2] = compound: CN(C)C(=N)NC(=N)N [Metformin] + C[C@@H](Oc1cc(-c2cnn(C3CCNCC3)c2)cnc1N)c1c(Cl)ccc(F)c1Cl [Crizotinib] (partner 1 µM)
Method in brief: as §1

[3] = compound: CN(C)C(=N)NC(=N)N [Metformin] + Nc1nc2[nH]cc(CCc3ccc(C(=O)N[C@@H](CCC(=O)O)C(=O)O)cc3)c2c(=O)[nH]1 [Pemetrexed] (partner 0.2 µM)
Method in brief: as §1

[4] = compound: N#CC1(c2ccc(NC(=O)c3cccnc3NCc3ccncc3)cc2)CCCC1 [Apatinib] + COc1cccc2cc(-c3nc([C@H]4CC[C@H](C(=O)O)CC4)n4ncnc(N)c34)[nH]c12 [OSI-027] (partner 0.5 µM)
Method in brief: as §1

Cell Line	relative viability ([1]; first compound 31.62 µM)	relative viability ([1]; first compound 100 µM)	relative viability ([1]; first compound 316.23 µM)	relative viability ([1]; first compound 1000 µM)	relative viability ([2]; first compound 31.62 µM)	relative viability ([2]; first compound 100 µM)	relative viability ([2]; first compound 316.23 µM)	relative viability ([2]; first compound 1000 µM)	relative viability ([3]; first compound 10 µM)	relative viability ([3]; first compound 31.62 µM)	relative viability ([3]; first compound 100 µM)	relative viability ([3]; first compound 316.23 µM)	relative viability ([3]; first compound 1000 µM)	relative viability ([4]; first compound 0.08 µM)	relative viability ([4]; first compound 0.253 µM)	relative viability ([4]; first compound 0.8 µM)	relative viability ([4]; first compound 2.53 µM)	relative viability ([4]; first compound 8 µM)	relative viability ([1]; first compound 10 µM)	relative viability ([2]; first compound 10 µM)
HCC-827	0.843	0.843	0.524	0.736	0.87	0.903	0.849	0.888	0.236	0.282	0.265	0.263	0.263	0.856	0.742	0.575	0.719	0.642	–	–
HOP-62	0.878	0.849	0.85	0.796	0.995	1.11	0.765	0.917	0.239	0.336	0.276	0.215	0.321	0.917	0.874	0.799	0.714	0.605	0.77	0.917
IA-LM	–	–	–	–	0.944	–	0.926	0.973	–	–	–	–	–	–	–	–	–	–	–	0.76
LC-2-ad	0.858	0.934	0.683	0.647	0.357	0.338	0.415	0.378	–	0.313	0.271	0.263	0.25	0.752	0.761	0.828	0.813	0.68	–	0.369
LCLC-97TM1	0.861	0.922	0.7	0.76	0.4	0.457	0.382	0.543	–	0.198	0.198	0.171	0.188	0.516	0.427	0.456	0.395	0.329	0.75	0.401
LCLC-103H	1.18	1.06	0.961	1.04	1.19	1.11	1.1	1.09	0.446	0.485	0.434	0.446	0.445	0.495	0.477	0.384	0.401	0.457	0.934	1.13
LK-2	0.17	0.196	0.2	0.191	0.214	0.234	0.176	0.245	0.319	0.292	0.255	0.237	0.306	0.217	0.197	0.157	0.205	0.167	0.203	0.228
LOU-NH91	0.404	0.316	0.344	0.376	0.806	0.766	0.802	0.847	0.438	0.394	0.409	0.385	0.437	0.636	0.667	0.599	0.619	0.676	0.343	0.747
LU99A	0.233	0.238	0.269	0.252	0.52	0.443	0.503	0.481	0.152	0.212	0.157	0.168	0.164	0.317	0.277	0.259	0.243	0.263	0.223	0.47
LXF-289	0.683	0.724	0.625	0.621	0.759	0.812	0.776	0.794	0.74	0.83	0.756	0.806	0.784	0.81	0.849	0.745	0.763	0.718	0.693	0.764
NCI-H23	0.244	0.218	0.272	0.214	0.692	0.693	0.548	0.811	0.679	0.852	0.652	0.586	0.79	0.637	0.658	0.535	0.46	0.377	0.207	0.574
NCI-H322M	0.884	1.05	0.912	0.826	1.01	0.958	0.854	0.78	0.68	0.621	0.644	0.606	0.594	0.551	0.533	0.52	0.518	0.46	0.831	0.884
NCI-H522	1.27	1.65	1.54	1.33	–	–	–	–	1.15	1.21	1.25	1.12	1.46	0.731	0.752	0.703	0.72	0.691	1.4	–
NCI-H727	0.496	0.387	–	0.477	0.886	1.04	0.811	0.993	–	–	–	–	–	0.55	0.565	0.533	0.642	0.466	0.566	0.886
NCI-H1299	–	–	–	–	0.962	0.975	0.972	1.04	–	–	–	–	–	–	–	–	–	–	–	0.98
NCI-H1395	0.697	0.826	0.834	0.773	–	–	–	–	1.05	1.1	0.998	0.624	0.488	0.614	0.701	0.662	0.693	0.639	0.706	–
NCI-H1648	–	–	–	–	–	–	–	–	–	0.664	0.876	0.67	0.713	0.272	0.253	0.265	0.267	0.261	–	–
NCI-H1703	–	–	–	–	0.934	0.66	0.679	0.886	–	–	–	–	–	–	–	–	–	–	–	0.989
NCI-H1793	–	0.147	0.16	0.235	–	–	–	–	1.16	0.826	1.23	0.874	1.22	0.282	0.25	0.268	0.222	0.175	0.22	–
NCI-H2342	0.706	0.726	0.731	0.71	–	–	–	–	–	1.13	0.751	0.786	0.752	0.579	0.573	0.626	0.529	0.518	0.687	–
SW 900	0.177	0.179	0.192	0.214	–	–	–	–	0.52	0.479	–	0.507	0.477	0.563	0.605	0.497	0.545	0.412	0.152	–

— the supplement of paper PMC10307832
